Test results from PMC8329197, “Compounds targeting OSBPL7 increase ABCA1-dependent cholesterol efflux preserving kidney function in two models of kidney disease” (Nature Communications, 2021).
Where “and” joins values, the source holds several entries; their conditions need not be identical. Equal entries are not always repeated.

Legend:
[1] = tested on: Adriamycin (ADR)-induced nephropathy in Balb/c mice; assay: ADR nephropathy: WBC, hemoglobin, hematocrit, ALT, AST; format: in vivo, mouse; details: ADR-induced nephropathy
[2] = tested on: Adriamycin (ADR)-induced nephropathy in Balb/c mice; assay: Adriamycin-induced nephropathy, main study: albumin/creatinine ratio and body weight
[3] = tested on: Adriamycin (ADR)-induced nephropathy in Balb/c mice; assay: ADR nephropathy: blood urea nitrogen (BUN) and serum creatinine; format: in vivo, mouse; details: 28 days treatment
Description: Supplement 41467_2021_24890_MOESM5_ESM.xlsx, sheet "Supplementary Table 4" | column: ADR+ Cpd A; ADR+ Cpd G; ADR+ Cpd C

[4] = tested on: Adriamycin (ADR)-induced nephropathy in Balb/c mice; assay: ADR nephropathy: serum cholesterol and triglycerides; format: in vivo, mouse
[5] = tested on: Adriamycin (ADR)-induced nephropathy in Balb/c mice; assay: ADR nephropathy: liver total cholesterol, cholesterol esters, triglycerides; format: in vivo, mouse
[6] = tested on: Adriamycin (ADR)-induced nephropathy in Balb/c mice; assay: ADR nephropathy: kidney cortex lipids (cholesterol ester, total cholesterol, triglycerides, Oil-red O); format: in vivo, mouse; details: ADR model; individual animals
Protocol: OCT embedded kidney cortex samples were cryosectioned at 4 μm thickness and stained with Oil-Red O-isopropanol solution (Electron Microscopy Science, PA) diluted 6:4 in water, and then counterstained with Hematoxylin Harris Hg Free (VWR, PA). Sections were then evaluated using a light microscope (Olympus BX 41, Tokyo, Japan).
Snap frozen kidney cortex samples were homogenized in 2 mM potassium phosphate buffer, pH 7, (10 µl buffer/mg tissue) using a glass douncer on ice. 100 μl of the homogenate were mixed thoroughly with 1 ml of hexane:isopropanol (3:2;v:v) per volume of tissue homogenate. The aqueous (pellet) and organic (supernatant) phases were separated by centrifugation at 12,000 × g for 5 min. Pellets (aqueous phase) were dried, reconstituted in 8 M urea, 0.1% SDS, 0.1 M NaOH, and total proteins were quantified by the BCA method (Thermofisher). The organic phase was dried by exposure to nitrogen. Lipids were then reconstituted in 100 µl isopropanol:NP-40 (9:1;v:v). Triglyceride content was assayed using a colorimetric kit according to the manufacturer’s instructions (Cayman Chemical USA). Total cholesterol and CE content were assayed using an enzymatic fluorometric method. For total cholesterol measurement, extracts were diluted 1:100 in assay buffer (100 mM potassium phosphate, 50 mM NaCl, 5 mM cholic acid, 0.1% Triton […], pH 7.4) containing cholesterol oxidase (1 U/ml), cholesterol esterase (1 U/ml), horseradish peroxidase (1 U/ml), and Amplex Red (75 µM). The reactions were incubated at 37 °C for 30 min in a black opaque 96-well plate (Greiner) and fluorescence was measured in a microplate reader (Spectramax i3X, Molecular Devices) at 530 nm excitation and 580 emission.
For CE determination, 150 µl of the assay buffer described above, supplemented with bovine liver catalase (45 U/ml) and cholesterol oxidase (1 U/ml), was added to 25 μl of sample and incubated overnight at 37 °C to deplete free cholesterol leaving only cholesterol esters. Then, 75 µl of cholesterol ester detection reagent (1 U/ml cholesterol oxidase, 4 U/ml cholesterol esterase, 24 U/ml horseradish peroxidase, 300 µM Amplex Red) was added. The reaction was incubated at 37 °C for 30 min and the fluorescence signal was measured as described above. Internal standards included samples containing 1 mM of cholesterol and 5 μM of cholesterol oleate in order to verify the completeness of the enzymatic decomposition of free cholesterol as well as assay sensitivity and specificity.

[7] = 28 days treatment, 25th quartile
[8] = 28 days treatment, 75th quartile
[9] = 28 days treatment, group maximum
[10] = 28 days treatment, group median
[11] = 28 days treatment, group minimum
[12] = 28 days treatment, individual mouse values
[13] = ADR-injected mice, 28-day treatment, 25th quartile
[14] = ADR-injected mice, 28-day treatment, 75th quartile
[15] = ADR-injected mice, 28-day treatment, group maximum
[16] = ADR-injected mice, 28-day treatment, group median
[17] = ADR-injected mice, 28-day treatment, group minimum
[18] = ADR-injected mice, 28-day treatment, individual mouse values

Animals with sporadically high cholesterol levels (>122 mg/dL) ([4]; plasma, 28 days of treatment, ADR-challenged): 10% | Cholesterol (mg/dL), Median(IQR) ([4]; serum, after ADR challenge): 91(80-159) mg/dL | Cholesterol (mg/dL), Range ([4]; serum, after ADR challenge): 71 to 159 mg/dL | Cholesterol, % of the group> 112 mg/dL ([4]; serum, after ADR challenge): 10% | Triglycerides (mg/dL), Median(IQR) ([4]; serum, after ADR challenge): 94(54-116) mg/dL | Triglycerides (mg/dL), Range ([4]; serum, after ADR challenge): 44 to 127 mg/dL | Hepatic triglyceride content vs. vehicle-treated controls ([5]; ADR-challenged, 28 days): increased hepatic triglyceride content
SMILES: O=C(N[C@@H]1CCCC[C@H]1O)c1ccc(OCC(F)(F)F)c(-c2ccc(Cl)c(Cl)c2)n1 [Cpd A]
ALT, Median (IQR) [1]: 256 (90.3-625) U/L | ALT, Range [1]: 88-766 U/L | AST, Median (IQR) [1]: 326 (213-500) U/L | AST, Range [1]: 200-685 U/L | HTC, Median (IQR) [1]: 54 (50-56) % | HTC, Range [1]: 47-62% | Hgb, Median (IQR) [1]: 13.6 g/dL | Hgb, Range [1]: 12.1 to 15.5 g/dL | WBC, Range [1]: 3.7-7.0 x103cells/µL | ALT, QR(25) [1, 7]: 130.75 U/L | AST, QR(25) [1, 7]: 232.75 U/L | HTC, QR(25) [1, 7]: 51.25% | Hgb, QR(25) [1, 7]: 13.1 g/dL | WBC, QR(25) [1, 7]: 3.925 x 10^3 cells/ul | ALT, QR(75) [1, 8]: 499.25 U/L | AST, QR(75) [1, 8]: 421.5 U/L | HTC, QR(75) [1, 8]: 55.5% | Hgb, QR(75) [1, 8]: 13.9 g/dL | WBC, QR(75) [1, 8]: 7.375 x 10^3 cells/ul | ALT, Max [1, 9]: 766 U/L | AST, Max [1, 9]: 685 U/L | HTC, Max [1, 9]: 62% | Hgb, Max [1, 9]: 15.5 g/dL | WBC, Max [1, 9]: 8.2 x 10^3 cells/ul | ALT, Median [1, 10]: 256.5 U/L | AST, Median [1, 10]: 326 U/L | HTC, Median [1, 10]: 54% | Hgb, Median [1, 10]: 13.6 g/dL | WBC, Median [1, 10]: 5.5 x 10^3 cells/ul | ALT, Min [1, 11]: 88 U/L | AST, Min [1, 11]: 200 U/L | HTC, Min [1, 11]: 47% | Hgb, Min [1, 11]: 12.1 g/dL | WBC, Min [1, 11]: 3.7 x 10^3 cells/ul | Alanine Aminotransferase (ALT) [1, 12]: 766 U/dL and 263 U/dL and 250 U/dL and 88 U/dL and 91 U/dL and 578 U/dL | Aspartate Aminotransferase (AST) [1, 12]: 685 U/dL and 372 U/dL and 280 U/dL and 200 U/dL and 217 U/dL and 438 U/dL | Hematocrit HTC [1, 12]: 58% and 54% and 62% and 47% and 56% and 52% and 48% and 51% | White Blood Cells WBC [1, 12]: 7.7 x 10^3 cells/ul and 8.2 x 10^3 cells/ul and 4.7 x 10^3 cells/ul and 3.8 x 10^3 cells/ul and 4.3 x 10^3 cells/ul and 3.7 x 10^3 cells/ul and 7 x 10^3 cells/ul and 6.3 x 10^3 cells/ul and 7.5 x 10^3 cells/ul | Effect on weight loss ([2]; 28 days after ADR): substantially reduced weight loss | ACR, median ([2]; 28 days after ADR, Cpd A 30, Cpd G 100, Cpd C 10 mg/Kg, group median): 2.3 mg albumin/mg creatinine and 2.363 mg albumin/mg creatinine | Weight (d28) ([2]; animal weight when therapy finished, single animals): 19 and 21 and 18 and 15 and 20 | Weight Change (as % of weight at day 0), Median ([2]; day 28 after ADR, Cpd A 30, Cpd G 100, Cpd C 10 mg/Kg): 0% | Weight Change (as % of weight at day 0) ([2]; day 28 after ADR, Cpd A 30, Cpd G 100, Cpd C 10 mg/Kg, single animals): 0% and -5.3% and -4.5% and -6.3% and -25% and 5.6% | ACR values (mg Albumin / mg Creatinine) ([2]; spot urine 28 days after ADR, oral daily Cpd A 30, Cpd G 100, Cpd C 10 mg/Kg, single animals): 0.242 mg Albumin / mg Creatinine and 6.27 mg Albumin / mg Creatinine and 20.39 mg Albumin / mg Creatinine and 14.37 mg Albumin / mg Creatinine and 0.707 mg Albumin / mg Creatinine and 11.834 mg Albumin / mg Creatinine and 0.631 mg Albumin / mg Creatinine and 2.363 mg Albumin / mg Creatinine and 0.33 mg Albumin / mg Creatinine and 3.08 mg Albumin / mg Creatinine and 0.093 mg Albumin / mg Creatinine | Times lower ACR ([2]; vs ADR+V, 28 days, Cpd A 30, Cpd G 100 mg/kg/day): 8 times | BUN, QR(25) ([3]; 25th quartile): 16 mg/dL | sCre, QR(25) ([3]; 25th quartile): 0.11 mg/dL | BUN, QR(75) ([3]; 75th quartile): 17.75 mg/dL | sCre, QR(75) ([3]; 75th quartile): 0.135 mg/dL | BUN, Max ([3]; group maximum): 23 mg/dL | sCre, Max ([3]; group maximum): 0.17 mg/dL | BUN, Median ([3]; group median): 17 mg/dL | sCre, Median ([3]; group median): 0.115 mg/dL | BUN, Min ([3]; group minimum): 13 mg/dL | sCre, Min ([3]; group minimum): 0.08 mg/dL | Blood Urea nitrogen (BUN) ([3]; individual mouse values): 17 mg/dL and 23 mg/dL and 18 mg/dL and 19 mg/dL and 16 mg/dL and 15 mg/dL and 13 mg/dL | Serum Creatinine sCre ([3]; individual mouse values): 0.12 mg/dL and 0.08 mg/dL and 0.17 mg/dL and 0.1 mg/dL and 0.15 mg/dL and 0.11 mg/dL and 0.14 mg/dL | SERUM CHOLESTEROL ([4]; ADR model, individual animals): 96 and 91 and 87 and 95 and 159 and 122 and 71 and 90 and 81 and 77 | SERUM TRIGLYCERIDES ([4]; ADR model, individual animals): 108 and 116 and 127 and 60 and 44 and 80 and 53 and 54 | Serum cholesterol, QR(25) [4, 13]: 87 mg/dL | Serum triglycerides, QR(25) [4, 13]: 55.5 mg/dL | Serum cholesterol, QR(75) [4, 14]: 96 mg/dL | Serum triglycerides, QR(75) [4, 14]: 116 mg/dL | Serum cholesterol, Max [4, 15]: 159 mg/dL | Serum triglycerides, Max [4, 15]: 127 mg/dL | Serum cholesterol, Median [4, 16]: 91 mg/dL | Serum triglycerides, median [4, 16]: 94 mg/dL | Serum cholesterol, Min [4, 17]: 71 mg/dL | Serum triglycerides, Min [4, 17]: 44 mg/dL | SERUM CHOLESTEROL [4, 18]: 91 mg/dL and 87 mg/dL and 95 mg/dL and 159 mg/dL and 122 mg/dL and 71 mg/dL and 90 mg/dL and 77 mg/dL and 96 mg/dL | SERUM TRIGLYCERIDES [4, 18]: 44 mg/dL and 80 mg/dL and 53 mg/dL and 54 mg/dL and 108 mg/dL and 116 mg/dL and 127 mg/dL and 60 mg/dL | LIVER CHOLESTEROL ESTERS ([5]; ADR model, individual animals): 1.39 nmol CE/ mg protein and 2.25 nmol CE/ mg protein and 2.79 nmol CE/ mg protein and 8 nmol CE/ mg protein and 3.82 nmol CE/ mg protein and 8.05 nmol CE/ mg protein | LIVER TOTAL CHOLESTEROL ([5]; ADR model, individual animals): 120 nmol Cholesterol/ mg protein and 119 nmol Cholesterol/ mg protein and 149 nmol Cholesterol/ mg protein and 163 nmol Cholesterol/ mg protein and 112 nmol Cholesterol/ mg protein and 195 nmol Cholesterol/ mg protein | LIVER TRIGLICERIDES ([5]; ADR model, individual animals): 75 nmol Triglycerides/ mg protein and 54.7 nmol Triglycerides/ mg protein and 58 nmol Triglycerides/ mg protein and 69 nmol Triglycerides/ mg protein and 38 nmol Triglycerides/ mg protein and 54.5 nmol Triglycerides/ mg protein | KIDNEY CORTEX TOTAL CHOLESTEROL [6]: 116.65 nmol Chol./mg protein and 64.31 nmol Chol./mg protein and 91.93 nmol Chol./mg protein and 226.3 nmol Chol./mg protein and 280.19 nmol Chol./mg protein and 194.83 nmol Chol./mg protein and 293.03 nmol Chol./mg protein and 87.04 nmol Chol./mg protein and 85.55 nmol Chol./mg protein and 75 nmol Chol./mg protein and 105.96 nmol Chol./mg protein | KIDNEY CORTEX TRIGLYCERIDES [6]: 65.49 nmol Triglyceride /mg protein and 206.46 nmol Triglyceride /mg protein and 31.6 nmol Triglyceride /mg protein and 59.01 nmol Triglyceride /mg protein and 14.83 nmol Triglyceride /mg protein and 65.84 nmol Triglyceride /mg protein and 43.06 nmol Triglyceride /mg protein and 145.74 nmol Triglyceride /mg protein and 110.74 nmol Triglyceride /mg protein
